Like-named read-outs stand apart in the source and are kept apart here.
How the values were obtained:
[1] = molecular target: T1, Acetylcholinesterase, enzyme from human erythrocytes (Homo sapiens, UniProt P22303); experiment: Acetylcholinesterase inhibition, spectrophotometric technique of Ellman; assay type: biochemical; conditions: Acetylcholinesterase inhibition IC50 (M), enzyme from human erythrocytes; Table 5
T1 construct: on the enzyme from human erythrocytes; from tissue; host or cells: human erythrocytes
Procedure: Acetylcholinesterase inhibition under the action of preparations was assessed by the spectrophotometric technique of Ellman on the enzyme from human erythrocytes.

mice [2] = experiment: Psychotropic activity test: motor activity; assay type: in vivo; conditions: intraperitoneally, dose 1/20 of LD
mice [3] = experiment: Psychotropic activity test: arecoline induced hyperkynesis; assay type: in vivo; conditions: intraperitoneally, dose 1/20 of LD
rats = experiment: Passive avoidance test in normal rats, 50% acquisition; assay type: in vivo; conditions: for change in vivo at 0.1 mg/kg: Rattus norvegicus, ip, 20 min, read-out: Increase of the number of correct trails (% to control). Passive avoidance test (rats); for change in vivo at 0.1 mg/kg / Increase of the number of correct trails (% to control). Passive avoidance test (rats): rats, 0.1 mg/kg i.p. 20 min before training, piracetam 250 mg/kg 60 min before training
Procedure: (§1) Psychoneurotropic activity of the declared compounds and their influence on learning and memory were observed using unbred male (18-20 g) mice and 180-200 g) rats, held at standard conditions (room temperature 21°-22° C., 12-hours lighting schedule, food and water ad libitum).
The influence of drugs on reflex conditioning in rats was studied by the passive avoidance test in conditions of 50% acquisition. The effect of the compound was estimated by the increase of the relative number of learned animals with respect to that of control group. […] The other reference drug--noothropic agent piracetam--was given in the dose 250 mg/kg 60 min before training. Amnestic syndrome was stimulated by 20 days application of Sc at the daily dose of 1 mg/kg intraperitoneally. […] The passive avoidance test was performed within 24 hours after the last application of test preparations.

in vivo = conditions: for LD50: in vivo, ip
Procedure: as §1
Acute toxicity was studied by the method of Kerber with intra peritoneal drug injection.

rat adipocytes = experiment: Lipid composition of adipocytes after incubation with compounds; assay type: cell-based; conditions: cells; Table 11
Procedure: Lipid regulative activity of the declared compounds--derivatives of 9-amino acridine--were evaluated in vitro[…] using rat adipocytes. Adipocytes were separated from adipose tissue of testis appendages of adult male rats. Lipid composition analysis was performed by the method of thin-layer chromatography.
Quantitative analysis of phospholipids (PL), mono- and diacylglycerides (MDG), triacylglycerides (TG), free fatty acids (FFA), free cholesterol (FCL), and methyl esters of fatty acids (MEFA) was performed by the method of spectrophotometry.

[4] = intraperitoneal injection, Table 5, read-out: LD50 (mg/kg) by Kerber
[5] = intraperitoneal injection, Table 5

T1 sequence (P22303-2 with tags, fused parts or gaps limits assumed): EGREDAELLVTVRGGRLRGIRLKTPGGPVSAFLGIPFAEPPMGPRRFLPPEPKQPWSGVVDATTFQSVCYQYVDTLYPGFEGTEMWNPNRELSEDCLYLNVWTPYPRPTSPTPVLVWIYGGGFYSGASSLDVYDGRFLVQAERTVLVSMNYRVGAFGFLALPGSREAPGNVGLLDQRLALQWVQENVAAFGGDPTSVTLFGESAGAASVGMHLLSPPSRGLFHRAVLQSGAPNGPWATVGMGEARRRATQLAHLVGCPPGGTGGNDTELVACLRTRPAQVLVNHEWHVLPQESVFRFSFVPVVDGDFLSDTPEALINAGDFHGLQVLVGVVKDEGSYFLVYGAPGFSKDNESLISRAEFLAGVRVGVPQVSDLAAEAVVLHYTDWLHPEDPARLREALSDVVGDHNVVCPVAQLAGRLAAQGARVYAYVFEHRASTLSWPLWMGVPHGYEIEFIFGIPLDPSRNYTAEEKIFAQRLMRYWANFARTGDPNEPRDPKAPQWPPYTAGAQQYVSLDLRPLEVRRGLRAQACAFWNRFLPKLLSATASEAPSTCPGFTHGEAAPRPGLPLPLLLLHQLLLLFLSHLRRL

SMILES | IC50 [1] [M] | Motor activity increment (% to control) (mice [2]) | Increase of duration of arecoline induced hyperkynesis (% to control) (mice [3]) | change in vivo at 0.1 mg/kg (rats) [%] | LD50 (in vivo; [4]) [mg/kg] | Performance of normal rats in passive avoidance test (rats) | Increase of the number of correct trails (% to control). Passive avoidance test (rats) (rats) | LD50 (mg/kg) by Kerber (in vivo; [5]) [mg/kg] | LD50 (in vivo; LD50 (mg/kg) by Kerber) [mg/kg] | FFA/TG in adipocytes (rat adipocytes) | PL/CL in adipocytes (rat adipocytes) | PL/TG in adipocytes (rat adipocytes)
Cc1cc(C)c2nc3c(c(N)c2c1)C(=O)CC(C)(C)C3 [IVh] | 3e-05 | 0 % to control | 20 % to control | 0 | > 500 | – | – | – | – | – | – | –
CC1(C)Cc2nc3ccccc3c(NCc3ccc(Cl)cc3)c2C(O)C1 (stereo not shown) [VIg] | 3e-06 | 40 % to control | 36 % to control | 0 | 80 ± 2.7 | – | – | – | – | – | – | –
CC1(C)C=Cc2c(nc3ccccc3c2NCc2ccccc2)C1 [VIIr] | – | 0 % to control | 0 % to control | – | – | statistically significantly improved performance of normal rats | 45 % to control | 69.5 ± 5.6 | – | – | – | –
CC1(C)C=Cc2c(nc3ccccc3c2NCc2ccccc2)C1 [VIIp] | – | 33 % to control | 21 % to control | – | – | statistically significantly improved performance of normal rats | 45 % to control | – | 75 ± 3.8 | – | – | –
CC1(C)C=Cc2c(nc3ccccc3c2NCc2ccccc2)C1 [VIIu] | – | 15 % to control | 12 % to control | – | – | – | 0 % to control | 83.8 ± 5.6 | – | – | – | –
CCCCNc1c2c(nc3ccccc13)CC(C)(C)C=C2 [VIIc] | 6e-07 | 20 % to control | 15 % to control | 25 | 33.3 ± 4.4 | – | – | – | – | – | – | –
CC1(C)C=Cc2c(nc3ccccc3c2NCc2ccccc2)C1 [VIIo] | – | 16 % to control | 0 % to control | – | – | statistically significantly improved performance of normal rats | 40 % to control | 62.5 ± 7.7 | – | – | – | –
CCN(CC)CCNc1c2c(nc3ccccc13)CC(C)(C)CC2=O [Vr] | 5e-05 | 0 % to control | 26 % to control | 0 | 135 ± 8.2 | – | – | – | – | – | – | –
CCNc1c2c(nc3ccccc13)CC(C)(C)CC2=O [Vj] | 1.7e-06 | 59 % to control | 20 % to control | 0 | 73.3 ± 8.6 | – | – | – | – | – | – | –
CC1(C)C=Cc2c(nc3ccccc3c2NCc2ccccc2)C1 [VIIh] | – | 13 % to control | 28 % to control | – | – | – | 20 % to control | 116.7 ± 10.9 | – | – | – | –
CCCCNc1c2c(nc3ccccc13)CC(C)(C)CC2=O [Vt] | – | 0 % to control | 0 % to control | – | – | – | 0 % to control | 210.0 ± 9.8 | – | – | – | –
CCCCNc1c2c(nc3ccccc13)CC(C)(C)CC2=O [Vz] | – | 0 % to control | 0 % to control | – | – | – | 20 % to control | 200.0 ± 21.9 | – | – | – | –
CC1(C)C=Cc2c(nc3ccccc3c2NCc2ccccc2)C1 [VIIq] | – | 20 % to control | 30 % to control | – | – | statistically significantly improved performance of normal rats | 45 % to control | 73.3 ± 4.4 | – | – | – | –
CC1(C)C=Cc2c(nc3ccccc3c2NCc2ccccc2)C1 [VIIm] | – | 15 % to control | 15 % to control | – | – | – | 25 % to control | 112.5 ± 10.9 | – | – | – | –
CCCCNc1c2c(nc3ccccc13)CC(C)(C)CC2=O [Vu] | – | 20 % to control | 0 % to control | – | – | statistically significantly improved performance of normal rats | 30 % to control | 210.0 ± 5.8 | – | – | – | –
CCCCNc1c2c(nc3ccccc13)CC(C)(C)CC2=O [Vx] | – | – | – | – | – | – | 25 % to control | 121.7 ± 15.5 | – | – | – | –
CCCCNc1c2c(nc3ccccc13)CC(C)(C)CC2=O [Vy] | – | 0 % to control | 0 % to control | – | – | – | 0 % to control | 210.0 ± 14.8 | – | – | – | –
CC1(C)C=Cc2c(nc3ccccc3c2NCc2ccccc2)C1 [VIIf] | – | 0 % to control | 0 % to control | – | – | – | 0 % to control | 125.0 ± 15.5 | – | – | – | –
CC(C)(Sc1cc(C(C)(C)C)c(O)c(C(C)(C)C)c1)Sc1cc(C(C)(C)C)c(O)c(C(C)(C)C)c1 [probucol, reference compound] | – | – | – | – | – | – | – | – | – | 1.10 | 0.84 | 0.69
CCCCNc1c2c(nc3ccccc13)CC(C)(C)CC2=O [Vs] | – | 0 % to control | 0 % to control | – | – | – | 15 % to control | 165.8 ± 14.8 | – | – | – | –
CCCCNc1c2c(nc3ccccc13)CC(C)(C)CC2=O [Vv] | – | 26 % to control | 15 % to control | – | – | – | 25 % to control | 433.3 ± 7.8 | – | – | – | –
CCCCNc1c2c(nc3ccccc13)CC(C)(C)CC2=O [Vw] | – | 10 % to control | 10 % to control | – | – | – | 10 % to control | 125.0 ± 11.8 | – | – | – | –
CC1(C)C=Cc2c(nc3ccccc3c2NCc2ccccc2)C1 [VIIn] | – | 11 % to control | 46 % to control | – | – | – | 40 % to control | 125.0 ± 10.9 | – | – | – | –
CC1(C)C=Cc2c(nc3ccccc3c2NCc2ccccc2)C1 [VIIg] | – | 23 % to control | 0 % to control | – | – | – | 0 % to control | 200.0 ± 21.9 | – | – | – | –
